Patent publication US20100249184A1, “INDUCTION AND/OR MAINTENANCE OF TUMOR DORMANCY BY DISRUPTION OF UROKINASE PLASMINOGEN ACTIVATOR RECEPTOR-INTEGRIN INTERACTION” (MOUNT SINAI SCHOOL OF MEDICINE, priority 2007, published 2010)

Key:
[1] = test system: T-HEp3 cells; experiment: P-ERK/ERK Western blotting after peptide treatment; format: cell-based, human
Text: FIGS. 6A-E show ERK activation and growth in vivo. In FIG. 6A, HEK293 and D-Hep3 cells transfected with uPAR^wt produces stronger activation of ERK than cells transfected with uPAR^S245A or with vector (top and middle panels); HEK293, and D-HEp3 cells, transiently transfected with pcDNA3.1 vector, or with an expression construct for uPAR^wt or uPAR^S245A lysed 48 hrs later and analyzed by Western blotting for phospho-ERK (FIG. 6A, top panels) and ERK 1/2 (FIG. 6A, middle panels) with specific antibodies. The bands were scanned with NIH Image and plotted. The ratio of phospho-ERK to ERK was calculated and expressed as a fraction of the ratio of pcDNA3.1 transfected cells. In FIG. 6A (bottom panels), uPAR^wt and uPAR^S245A expression was determined by Western blotting. […] D-HEp3 cells transfected with vector, or uPAR^wt or uPAR^S245A were detached with EDTA 36 hrs after transfection and 7×10^5 cells in 30 μl PBS were inoculated onto chorioallantoic membranes (“CAMs”) of 10-day old chick embryos. Each sample was inoculated onto 4 CAMs. The CAMs were excised 4 days later and the number of tumor cells was determined as in the Examples. The bars show mean and standard deviation. Paired t-test vector/uPAR^S245A p=0.76, vector/uPAR^wt p=0.0005, uPAR^S245/uPAR^wt p=0.0002. Inset: uPAR expression detected by Western blot with R2 antibody. In FIG. 6C, peptide 240-248, but not peptide 17-24, down regulates P-ERK level. T-HEp3 cells were serum-starved and treated in serum-free medium with 25 μM of peptides 240-248 and 17-24 for 45 min and 3 hrs. The cells were lysed and the lysates were analyzed for P-ERK (FIG. 6C, upper panel) and total ERK (FIG. 6C, lower panel) by Western blotting. FIG. 6D is a graph showing that S245A mutant peptide has no effect on ERK activation. T-HEp3 cells were treated with 5, 20, and 40 μM peptides 240-248 ([…]), 17-24 (▪), and S245A (▾) for 1 hr. The cells were processed as in FIG. 6C, except that the bands were scanned by NIH Image the P-ERK/ERK ratio was calculated. […] Sub-confluent T-ELK:GFP cells grown in 48-well plate and serum-starved overnight were incubated with the uPAR peptides 240-248 at 5 and 25 μM and with 17-24 peptide at 25 μM for 40 hrs at 37° C. in serum-free medium. The cells were detached and analyzed for GFP in FACS Canto using FACSDiva software. The numbers represent GFP-positive cells as percent of total. The dose-response for peptide 240-248 and highest concentration of peptides 17-24 and S245A were repeated two additional times with similar results.
To test the effect of uPAR/integrin inhibiting peptides on ERK activity, T-HEp3 cells transfected with two plasmids that report through GFP level on the state of ERK activation and designated T-ELK (Aguirre-Ghiso et al., Cancer Res. 63:1684-1695 (2003), which is hereby incorporated by reference in its entirety) were plated in 48-well plates, serum-starved overnight, and treated (in duplicates) with 5 and 25 μM of uPAR-derived synthetic peptides (240-248) or 25 μM (17-24) in DMEM for 42 hrs. Untreated cells served as positive control and cells not expressing GFP as negative control. The cells were detached and analyzed for GFP by FACS analysis using FACS Canto (Becton Dickinson, Calif.) and FACSDiva software. Alternatively, T-HEp3 cells, serum-starved overnight were incubated in serum-free medium with 5, 20, and 40 μM of uPAR-derived synthetic peptide 240-248, 17-24, or S245A for 1 hr or with 25 μM peptide 240-248 and 17-24 for 10 min, 45 min, and 3 hrs at 37° C. The cells were lysed in RIPA buffer and processed as described above. Concentration dependence of P-ERK inhibition was analyzed by scanning P-ERK and ERK bands with NIH-Image and expressing their ratios as % of the ratio in untreated control (T-HEp3) cells.

[2] = biological target: T1, α5β1-integrin/uPAR complex (Homo sapiens, UniProt P05556+P08648); experiment: Disruption of preformed uPAR/α5β1-integrin complex (co-immunoprecipitation); format: biochemical; details: cell lysates incubated with 20 μM peptide, 20 min at 4° C., pull-down with anti-α5β1 (HA5)
T1 construct: endogenous in cells; host or cells: T-HEp3 (human epidermoid carcinoma) cell lysate
Description: FIGS. 5A-B show the physical interaction between uPAR and α5β1-integrin. […] D-HEp3 cells were transfected with vector (pcDNA3.1) alone or with constructs expressing uPAR^wt or uPAR^S245A and after 48 hrs the cells were surface biotinylated and lysed as described in the Examples. Half of each lysate (0.8 mg of protein) was immunoprecipitated with 5 μg monoclonal anti-uPAR(R3) antibody and half with 5 μg monoclonal anti-α5β1-integrin (HA5) antibody. Isotype-matched IgG served as negative control. The immunoprecipitates were separated on an SDS-PAGE and the bands were detected with streptavidin-HRP conjugate and ECL. […] The numbers represent uPAR precipitated by anti-α5β1 antibody as percent of total uPAR. The experiment was repeated 5 times using the same and additional anti-integrin and anti-uPAR antibodies with essentially similar results. FIG. 5B is a graph showing the disruption of uPAR and α5β1-integrin complex with peptides 240-248 and S245A. T-HEp3 cells were surface biotinylated and lysed as described in the Examples. The lysate was precleared with isotype-matched IgG and aliquots containing 0.8 mg protein were incubated with peptides 240-248 and S245A (5 μM and 20 μM) or without peptides (Control, C) for 20 min at 4° C. followed by IP with 5 μg of monoclonal anti-α5β1-integrin (HAS) antibody for 90 min. The immunoprecipitates were analyzed as in FIG. 5A and scanned with NIH Image. […]

[3] = 25 μM peptide, 45 and 180 min, serum-starved
[4] = 25 μM peptide, 10 min, serum-starved

T1 sequence (P08648 42-894 limits assumed): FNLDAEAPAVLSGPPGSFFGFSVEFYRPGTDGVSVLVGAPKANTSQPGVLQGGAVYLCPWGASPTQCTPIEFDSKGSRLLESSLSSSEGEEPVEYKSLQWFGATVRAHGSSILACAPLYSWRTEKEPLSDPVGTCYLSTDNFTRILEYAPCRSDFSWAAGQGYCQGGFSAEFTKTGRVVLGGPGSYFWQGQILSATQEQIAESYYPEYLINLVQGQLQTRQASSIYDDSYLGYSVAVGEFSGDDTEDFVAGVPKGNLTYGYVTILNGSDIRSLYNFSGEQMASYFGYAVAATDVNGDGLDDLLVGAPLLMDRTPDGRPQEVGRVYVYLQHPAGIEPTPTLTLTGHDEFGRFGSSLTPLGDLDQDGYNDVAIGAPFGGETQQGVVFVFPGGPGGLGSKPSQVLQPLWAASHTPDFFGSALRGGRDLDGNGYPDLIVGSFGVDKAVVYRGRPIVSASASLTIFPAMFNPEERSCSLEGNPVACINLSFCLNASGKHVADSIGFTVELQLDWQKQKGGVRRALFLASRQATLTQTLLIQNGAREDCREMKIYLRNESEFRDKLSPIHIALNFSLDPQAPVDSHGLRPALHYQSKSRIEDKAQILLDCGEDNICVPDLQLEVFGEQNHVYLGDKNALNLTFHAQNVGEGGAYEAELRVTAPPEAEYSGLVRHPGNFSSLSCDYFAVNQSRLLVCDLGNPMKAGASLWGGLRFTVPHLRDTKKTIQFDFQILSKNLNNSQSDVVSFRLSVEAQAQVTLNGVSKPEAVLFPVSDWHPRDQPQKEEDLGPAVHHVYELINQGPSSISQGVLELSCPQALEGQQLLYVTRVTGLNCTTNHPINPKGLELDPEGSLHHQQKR
T1 sequence (P08648 895-1049 limits assumed): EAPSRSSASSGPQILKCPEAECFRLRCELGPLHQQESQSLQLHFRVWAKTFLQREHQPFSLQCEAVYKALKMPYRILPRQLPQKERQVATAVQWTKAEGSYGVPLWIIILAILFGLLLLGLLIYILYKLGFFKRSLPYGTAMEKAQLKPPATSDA
T1 sequence (P05556 21-798): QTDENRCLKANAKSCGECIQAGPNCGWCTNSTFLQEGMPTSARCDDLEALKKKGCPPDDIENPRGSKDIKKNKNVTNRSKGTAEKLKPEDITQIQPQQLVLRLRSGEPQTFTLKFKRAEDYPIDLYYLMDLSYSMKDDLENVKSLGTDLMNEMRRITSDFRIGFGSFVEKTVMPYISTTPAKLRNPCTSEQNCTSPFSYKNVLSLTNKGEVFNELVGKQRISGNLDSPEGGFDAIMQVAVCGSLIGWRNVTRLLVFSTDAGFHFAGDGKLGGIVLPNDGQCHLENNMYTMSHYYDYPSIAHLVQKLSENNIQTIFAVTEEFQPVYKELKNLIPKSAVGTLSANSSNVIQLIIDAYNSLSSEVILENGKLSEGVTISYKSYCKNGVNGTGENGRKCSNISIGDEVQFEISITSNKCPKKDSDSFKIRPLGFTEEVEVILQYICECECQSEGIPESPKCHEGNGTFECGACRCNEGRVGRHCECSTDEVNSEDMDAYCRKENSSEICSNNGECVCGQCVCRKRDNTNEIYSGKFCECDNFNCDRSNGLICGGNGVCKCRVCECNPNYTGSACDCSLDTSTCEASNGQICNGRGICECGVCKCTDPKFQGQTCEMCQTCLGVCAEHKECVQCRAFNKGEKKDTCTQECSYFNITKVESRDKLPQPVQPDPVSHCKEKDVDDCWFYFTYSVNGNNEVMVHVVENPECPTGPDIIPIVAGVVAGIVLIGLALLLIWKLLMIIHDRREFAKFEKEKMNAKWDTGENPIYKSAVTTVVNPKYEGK

Row | Substance | P-ERK level [1, 3] | P-ERK level [1, 4] | P-ERK level ([1]; 5, 20 and 40 μM peptide, 1 hr) | disruption of preformed uPAR/integrin complex [2]
1 | peptide 17-24: synthetic uPAR-derived peptide, domain I amino acid 17-24: CALGQDLC (SEQ ID NO:5); negative control [reference compound] | minimal or no effect | only a minor effect | minor and inconsistent effects | 
2 | peptide 240-248: synthetic uPAR-derived peptide, domain III residues 240-248: GCATASMCQ (SEQ ID NO:9) | strong reduction in P-ERK level | only a minor effect | reduced P-ERK level in a dose-dependent fashion | disrupted
